Data published in PubChem BioAssay (NCI).
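How tested: cells in 96-well plates exposed to compound for 48 hours at five concentrations. GI50 = concentration required for 50% inhibition of growth. TGI: concentration producing complete growth inhibition.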

Key:
Assay in all cases: NCI tumour cell line growth inhibition, 48 h
SF-539 CNS = test system: SF-539 CNS
HOP-18 NSCLC = test system: HOP-18 NSCLC
P388/ADR leukemia = test system: P388/ADR leukemia
NCI-H460 lung = test system: NCI-H460 lung
HCT-15 colon = test system: HCT-15 colon
NCI-H226 lung = test system: NCI-H226 lung
M19-MEL melanoma = test system: M19-MEL melanoma
SK-MEL-2 melanoma = test system: SK-MEL-2 melanoma
CCRF-CEM leukemia = test system: CCRF-CEM leukemia
SN12K1 renal = test system: SN12K1 renal
BT-549 breast = test system: BT-549 breast
SR leukemia = test system: SR leukemia
MDA-N = test system: MDA-N
MDA-MB-435 = test system: MDA-MB-435

| Compound | TGI (SF-539 CNS) | TGI (HOP-18 NSCLC) | TGI (P388/ADR leukemia) | TGI (NCI-H460 lung) | TGI (HCT-15 colon) | TGI (NCI-H226 lung) | TGI (M19-MEL melanoma) | TGI (SK-MEL-2 melanoma) | TGI (CCRF-CEM leukemia) | TGI (SN12K1 renal) | TGI (BT-549 breast) | TGI (SR leukemia) | TGI (MDA-N) | TGI (MDA-MB-435) | GI50 (BT-549 breast) | GI50 (SR leukemia) | GI50 (NCI-H460 lung) | GI50 (HCT-15 colon) | GI50 (SK-MEL-2 melanoma) | GI50 (CCRF-CEM leukemia) |
| --- | --- | --- | --- | --- | --- | --- | --- | --- | --- | --- | --- | --- | --- | --- | --- | --- | --- | --- | --- | --- |
| O=C1OC2CC=CC1C2 (stereo unspecified) | > 100 µM | > 100 µM | > 100 µM | > 100 µM | > 100 µM | > 100 µM | > 100 µM | > 100 µM | > 100 µM | > 100 µM |  |  |  |  |  |  |  |  |  |  |
| COc1ccc(NC(=S)N/N=C(\C)c2nc3ncccc3[nH]2)cc1 | 13.7 µM |  |  | 37.9 µM | > 100 µM | 21.7 µM |  | > 100 µM | 24.5 µM |  | 42.3 µM | > 100 µM | > 100 µM | > 100 µM |  |  |  |  |  |  |
| O=C(Oc1ccc(Cl)cc1[N+](=O)[O-])c1ccccc1 | > 100 µM | > 100 µM |  | > 100 µM | > 100 µM | > 100 µM | > 100 µM | > 100 µM | > 100 µM |  |  | > 100 µM |  |  |  |  |  |  |  |  |
| SC1CCCN(Cc2ccccc2)C1 (stereo unspecified) | > 100 µM |  |  | 64.7 µM | > 100 µM | > 100 µM |  | > 100 µM |  |  | > 100 µM | 71.5 µM | > 100 µM | > 100 µM |  |  |  |  |  |  |
| CCCC(=O)O.CCCC(=O)O.CCCC(=O)O.CCCC(=O)O.[Rh].[Rh] |  |  |  | 0.327 µM | 0.762 µM |  |  | 0.896 µM | 1.08 µM |  | 0.101 µM | 1.06 µM |  |  | 0.0314 µM | 0.0586 µM | 0.165 µM | 0.155 µM | 0.285 µM | 0.0277 µM |
| COc1cc(/C=C/C(=O)CC(=O)/C=C/c2ccc(O)c(OC)c2)ccc1O | 8.87 µM |  |  | 23.1 µM | 18.5 µM | 53.7 µM |  | 40.3 µM | 15.6 µM |  | 13.7 µM | 14.6 µM |  | 12.1 µM |  |  |  |  |  |  |
| O=C(COc1ccc(Cl)c(Cl)c1)N(Cc1ccccc1)Cc1ccc[n+](Cc2ccc(Cl)cc2S(=O)(=O)F)c1 | > 100 µM |  |  | > 100 µM | > 100 µM | > 100 µM |  | 70.1 µM |  |  |  | 52.4 µM |  | > 100 µM |  |  |  |  |  |  |
| COc1ccc(OC)c(CC(C)N)c1 (stereo unspecified) | > 100 µM | > 100 µM |  | > 100 µM | > 100 µM | > 100 µM | > 100 µM | > 100 µM | > 100 µM |  |  |  |  |  |  |  |  |  |  |  |
| CC(C)(C)OC(=O)NC1CCC(C(C)(C)C)CC1 (stereo unspecified) | > 100 µM | > 100 µM | > 100 µM | > 100 µM | > 100 µM | > 100 µM | > 86.7 µM | 71.3 µM | > 100 µM | > 100 µM |  |  |  |  |  |  |  |  |  |  |
| COc1cc(S(=O)(=O)Nc2nc(-c3ccc(N4C(=O)/C(=C/c5ccccc5[N+](=O)[O-])N=C4c4ccccc4)cc3)cs2)ccc1Cl | > 100 µM |  |  | > 100 µM | > 100 µM | > 100 µM |  | > 100 µM | > 100 µM |  | 74.7 µM | > 100 µM | > 100 µM | > 100 µM |  |  |  |  |  |  |
| Cl/C(=C\C=Nc1ccc(I)cc1)c1ccc2ccccc2c1 | 44.4 µM |  |  | > 79.4 µM | 33.8 µM | > 59.7 µM |  | 56.1 µM | > 25.1 µM |  | 47 µM | 19 µM |  | 28 µM |  |  |  |  |  |  |
| C=CCNS(=O)(=O)c1ncnc2nc[nH]c12 |  |  |  |  | > 100 µM | > 100 µM |  | > 100 µM | > 100 µM |  | > 100 µM | > 100 µM | > 100 µM | > 100 µM |  |  |  |  |  |  |
| C=C1C(=O)OC2CC1CCC1(C)OC1CCC(C)=CCCC2(C)O (stereo unspecified) | 10.5 µM | 3.37 µM | 10.8 µM | 7.85 µM | 7.79 µM | 9.17 µM | 11.8 µM | 14.2 µM | 4.56 µM | 11.9 µM |  |  |  |  |  |  |  |  |  |  |
| c1ccc(C[N+]23CN4CN(CN(C4)C2)C3)cc1 | 51.9 µM |  |  | > 100 µM | > 100 µM | > 100 µM |  | 34.6 µM | 32.9 µM |  | > 100 µM |  | > 100 µM | 45.5 µM |  |  |  |  |  |  |
| O=C1OCc2cc3cc4c(cc3c(-c3ccc5c(c3)OCO5)c21)OCO4 (tested in a mixture with another compound) |  |  |  | > 100 µM | > 100 µM | 29.3 µM |  | 68 µM | > 100 µM |  | > 100 µM | > 100 µM | 19.2 µM | > 100 µM |  |  |  |  |  |  |
| O=C1CCCC2C3CC(CN12)C1CCCCN1C3 (stereo unspecified) | > 100 µM |  |  | > 100 µM | > 100 µM | > 100 µM |  | > 100 µM | > 100 µM |  | > 100 µM | > 100 µM | > 100 µM | > 100 µM |  |  |  |  |  |  |
| CC(C)(C)c1ccc(/C=N/NC(=O)CSCC(=O)N/N=C/c2ccc(C(C)(C)C)cc2)cc1 |  |  |  | 15 µM | 15.8 µM | 4.93 µM |  | 5.72 µM |  |  |  | 3.76 µM |  |  |  |  |  |  |  |  |
| O=C(/C=C/c1ccccc1)N1CCCCC1 | > 100 µM |  |  | > 100 µM | > 100 µM | > 100 µM |  | > 100 µM | > 100 µM |  | > 100 µM | > 100 µM | > 100 µM | > 100 µM |  |  |  |  |  |  |
| COc1c(OC/C=C(\C)CCC=C(C)C)ccc2ccc(=O)oc12 | > 100 µM |  |  |  | > 100 µM |  |  | > 100 µM | > 100 µM |  | > 100 µM | > 100 µM | > 100 µM | > 100 µM |  |  |  |  |  |  |
| CC(=O)NNC(=O)C1CCCCN1 (stereo unspecified) | > 100 µM |  |  | > 100 µM | > 100 µM | > 100 µM |  | > 100 µM | > 100 µM |  | > 100 µM | > 100 µM | > 100 µM | > 100 µM |  |  |  |  |  |  |
| CC[C@]12C=CCN3CC[C@@]4(c5cc(Br)c(OC)cc5N(C)[C@H]4[C@@](O)(C(=O)N[C@@H](Cc4ccc(O)cc4)C(=O)OC)[C@@H]1O)[C@@H]32 | 36.6 µM |  |  | 40.5 µM | 76.3 µM |  |  | 60.1 µM | 44 µM |  | 41.4 µM | 46.4 µM | 49.1 µM | 35.8 µM |  |  |  |  |  |  |
| Br/C(=N\Nc1nn[nH]n1)c1ccncc1 | > 100 µM |  |  | > 100 µM | > 100 µM | > 100 µM |  | > 100 µM | > 100 µM |  | > 100 µM | > 100 µM | > 100 µM | > 100 µM |  |  |  |  |  |  |
